Key:
[1] = molecular target: α9/α10 nicotinic acetylcholine receptors (Rattus norvegicus, UniProt P43144+Q9JLB5); conditions: Plazas, et al., Eur J Pharmacol., 2007; cited from earlier work
[2] = test system: patients with tinnitus associated with sudden hearing loss; test: 24-week, placebo controlled, randomized, double-blind comparative trial; TRSw score; format: in vivo, human; conditions: for Change in TRSw score, Neramexane: least mean squares (MMRM)
Protocol: Film coated tablets comprising 12.5 mg neramexane mesylate were produced by the method disclosed in International Patent Publication No. WO2009/033649.
The efficacy of neramexane mesylate on patients with tinnitus associated with sudden hearing loss was evaluated in a 24-week, placebo controlled, randomized, double-blind comparative trial.
The film coated tablets comprising 12.5 mg neramexane mesylate or placebo tablets were administered for 24 weeks to patients having tinnitus. The dosage was started from 12.5 mg/day, and gradually increasing the dose to 50 mg/day over 4 weeks, and maintaining the same dose thereafter.
The therapeutic effect of neramexane mesylate for the patients was evaluated using the TRSw score. Also, the state of anxiety or depression of the patients was evaluated using the HADS score. Statistical analysis was performed using a mixed-effect model repeated measure (MMRM) taking into consideration the covariance structure of error for the patient, with the change in TRSw score from before administration of neramexane mesylate tablets or placebo tablets (0 weeks) to each evaluation time point as the response variable, and with the drug-administered group, evaluation time point, interaction between drug-administered group and evaluation time point, 0-week TRSw score, gender and body weight as […]. The numerical values in the table represent least mean squares for the change in TRSw score at 16 weeks after administration and 24 weeks after administration. A change in score of less than 0 indicates a higher therapeutic effect.

[3] = molecular target: T1, 5-HT3 receptors (Homo sapiens, UniProt P46098); conditions: cited from earlier work
T1 sequence (P46098 24-478): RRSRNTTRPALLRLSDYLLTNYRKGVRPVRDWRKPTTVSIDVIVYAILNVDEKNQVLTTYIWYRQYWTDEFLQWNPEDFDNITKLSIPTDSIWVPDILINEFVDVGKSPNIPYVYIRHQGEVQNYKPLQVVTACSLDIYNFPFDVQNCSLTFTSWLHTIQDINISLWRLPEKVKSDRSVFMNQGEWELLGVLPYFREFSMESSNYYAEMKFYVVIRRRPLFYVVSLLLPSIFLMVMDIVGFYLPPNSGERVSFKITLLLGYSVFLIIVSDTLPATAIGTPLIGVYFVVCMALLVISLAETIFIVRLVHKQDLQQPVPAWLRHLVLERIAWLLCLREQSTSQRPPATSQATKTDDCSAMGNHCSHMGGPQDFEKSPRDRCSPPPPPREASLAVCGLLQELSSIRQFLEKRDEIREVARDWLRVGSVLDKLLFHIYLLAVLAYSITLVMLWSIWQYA

[4] = sudden hearing loss, together with HADS (anxiety) of >10
[5] = sudden hearing loss, together with HADS (depression) of >10
[6] = sudden hearing loss, together with morbidity period of 48 months or longer
[7] = sudden hearing loss, together with suffering period of less than 6 months

Sequence of α9/α10 nicotinic acetylcholine receptors (P43144 26-479): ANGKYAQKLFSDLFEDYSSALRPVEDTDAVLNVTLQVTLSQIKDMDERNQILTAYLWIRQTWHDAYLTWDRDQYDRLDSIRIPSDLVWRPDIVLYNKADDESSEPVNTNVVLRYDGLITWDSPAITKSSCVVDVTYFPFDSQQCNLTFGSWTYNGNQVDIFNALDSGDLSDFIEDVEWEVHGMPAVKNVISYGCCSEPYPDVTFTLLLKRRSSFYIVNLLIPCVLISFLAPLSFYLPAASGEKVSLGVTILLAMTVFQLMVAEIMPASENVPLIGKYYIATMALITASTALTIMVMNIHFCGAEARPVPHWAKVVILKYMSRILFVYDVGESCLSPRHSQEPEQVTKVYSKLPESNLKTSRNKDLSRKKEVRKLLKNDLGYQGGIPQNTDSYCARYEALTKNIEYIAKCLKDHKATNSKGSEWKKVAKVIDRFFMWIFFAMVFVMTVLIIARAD
Sequence of α9/α10 nicotinic acetylcholine receptors (Q9JLB5 25-447): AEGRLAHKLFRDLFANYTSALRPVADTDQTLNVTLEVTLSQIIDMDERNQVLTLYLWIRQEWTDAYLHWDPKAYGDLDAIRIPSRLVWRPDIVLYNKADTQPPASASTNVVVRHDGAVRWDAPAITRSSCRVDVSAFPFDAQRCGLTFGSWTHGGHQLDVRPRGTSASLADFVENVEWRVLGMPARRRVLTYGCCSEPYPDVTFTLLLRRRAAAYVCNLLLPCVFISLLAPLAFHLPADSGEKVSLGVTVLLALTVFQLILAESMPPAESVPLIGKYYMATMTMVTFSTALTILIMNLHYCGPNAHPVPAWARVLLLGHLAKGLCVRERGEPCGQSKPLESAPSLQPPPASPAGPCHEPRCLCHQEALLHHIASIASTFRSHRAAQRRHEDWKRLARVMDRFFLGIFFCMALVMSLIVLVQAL

CC1(C)CC(C)(C)CC(C)(N)C1 [Neramexane, 1-amino-1,3,3,5,5-pentamethylcyclohexane]
inhibiting activity on α9/α10 nicotinic acetylcholine receptors [1]: exhibits inhibiting activity
Change in TRSw score, Neramexane − placebo ([2]; Tinnitus associated with sudden hearing loss): −1.8
therapeutic effect ([2]; group with a depression value of greater than 10 according to HADS): unexpectedly excellent therapeutic effect
therapeutic effect ([2]; group with a morbidity period of 48 months or longer): unexpectedly excellent therapeutic effect
therapeutic effect ([2]; group with a suffering period of shorter than 6 months): unexpectedly excellent therapeutic effect
therapeutic effect ([2]; group with an anxiety value of greater than 10 according to HADS): unexpectedly excellent therapeutic effect
Change in TRSw score, Neramexane ([2]; change from 0 weeks, up to 50 mg/day, Tinnitus associated with sudden hearing loss): −2.3
Change in TRSw score, Neramexane [2, 4]: −2.4
Change in TRSw score, Neramexane [2, 5]: −3.1
Change in TRSw score, Neramexane [2, 6]: −4.0
Change in TRSw score, Neramexane [2, 7]: −3.7
therapeutic effect compared to placebo ([2]; patients affected by tinnitus associated with sudden hearing loss): clear therapeutic effect
Change in TRSw score, Neramexane − placebo [2, 4]: −3.7
Change in TRSw score, Neramexane − placebo [2, 5]: −3.7
Change in TRSw score, Neramexane − placebo [2, 6]: −4.2
Change in TRSw score, Neramexane − placebo [2, 7]: −3.8
inhibiting activity on 5-HT3 receptors [3]: exhibits inhibiting activity
